Source: ChEMBL document CHEMBL2010659, “Synthesis of novel long wavelength cationic chlorins via stereoselective aldol-like condensation” (Bioorg Med Chem Lett, 2012)
Active and inactive are the calls of the source. The rule behind the calls is not given here.

Columns and labels:
Type in all cases: functional, cell-based
[1] = tested on: HeLa; assay: Cytotoxicity against human HeLa cells up to 10 uM after 12 hrs by WST-8 assay
[2] = tested on: HeLa; assay: Cytotoxicity against human HeLa cells of light exposed compound up to 10 uM after 12 hrs by WST-8 assay
[3] = tested on: HeLa; assay: Cytotoxicity against human HeLa cells of light exposed compound after 12 hrs by WST-8 assay

Compound | Activity [1] | Activity [2] | Activity [3] | IC50 [3] [µM]
CCC1=C(C)c2cc3[nH]c(cc4nc(c5c6[nH]c(cc1n2)c(C)c6C(=O)N(OC)C5=O)[C@@H](CCC(=O)OC)[C@@H]4C)c(C)c3/C=C/c1cccc[n+]1C | inactive | Active | Dose-dependent effect | 0.11
C=Cc1c(C)c2cc3nc(c4c5[nH]c(cc6nc(cc1[nH]2)C(C)=C6CC)c(C)c5C(=O)C4)[C@@H](CCC(=O)OC)[C@@H]3C [METHYL PYROPHEOPHORBIDE A] | inactive | Active | Dose-dependent effect | 0.28
CCC1=C(C)c2cc3[nH]c(cc4nc(c5c6[nH]c(cc1n2)c(C)c6C(=O)N(OC)C5=O)[C@@H](CCC(=O)OC)[C@@H]4C)c(C)c3/C=C/c1ccc2ccccc2[n+]1C | inactive | Active | Dose-dependent effect | 0.97
C=Cc1c(C)c2cc3nc(c4c5[nH]c(cc6nc(cc1[nH]2)C(C)=C6CC)c(C)c5C(=O)N(OC)C4=O)[C@@H](CCC(=O)OC)[C@@H]3C | inactive | Active | Dose-dependent effect | 2.71
CCC1=C(C)c2cc3[nH]c(cc4nc(c5c6[nH]c(cc1n2)c(C)c6C(=O)C5)[C@@H](CCC(=O)OC)[C@@H]4C)c(C)c3/C=C/c1cc[n+](C)cc1 | inactive | Active | Dose-dependent effect | 7.94
CCC1=C(C)c2cc3[nH]c(cc4nc(c5c6[nH]c(cc1n2)c(C)c6C(=O)C5)[C@@H](CCC(=O)OC)[C@@H]4C)c(C)c3/C=C/c1ccc2ccccc2[n+]1C | inactive | Active | Dose-dependent effect | 5.36
